Earlier results on 1 compound are cited in patent US20070185067A1, “Ciclesonide and glycopyrronium combination” (Altana Pharma AG, priority 2004, published 2007).

The conditions of series [1]: compared with budesonide.
Assay in series [2]: not given
The source holds these as a separate data set.

On to `CC(C)C(=O)OCC(=O)[C@@]12O[C@H](C3CCCCC3)O[C@@H]1C[C@H]1[C@@H]3CCC4=CC(=O)C=C[C@]4(C)[C@H]3[C@@H](O)C[C@@]12C` [Ciclesonide, [11β,16α(R)]-16,17-[(Cyclohexylmethylen)bis(oxy)]-11-hydroxy-21-(2-methyl-1-oxo-prop-oxy)pregna-1,4-dien-3,20-dion], for which the “systemic activity relative to budesonide” value (compared with budesonide) is listed as “three times lower than that of budesonide”. Moreover, the systemic activity result (in vivo) was “low systemic activity”. In addition, the “anti-inflammatory activity relative to budesonide” value in series [1] is “higher”. Also, the “metabolism by liver oxidases” value in series [2] (liver oxidases) is “very high”. Moreover, the “concentration of the drug in the lungs” value in series [2] (lungs) is on record as “high”. In addition, in series [2] (oral administration), the “absorption after oral administration” value was “only moderately absorbed”. The plasma half-life result in series [2] (plasma) was “low plasma half-life”.
